Experimental data as given in patent US20100204129A1, “USE OF A PEPTIDE AS A THERAPEUTIC AGENT” (priority 2008, published 2010).
Non-standard residues stand in square brackets, D forms with d. Residues, ends and D or L forms follow the SMILES beside them.

What was measured:
[1] = test system: HIV-1IIIB; experiment: HIV-1 antiviral assay (CPE reduction, MTS); type: cell-based; settings: peptide 10 micrograms per ml, 6 days post-infection
[2] = test system: Human Peripheral Blood Mononuclear Cells (PBMC); experiment: T cell proliferation assay (PHA, 3H-thymidine); type: cell-based; settings: peptide 10 micrograms per ml, 3H-thymidine incorporation
Procedure: Human Peripheral Blood Mononuclear Cells (PBMC) were obtained from normal human donors. The T cell proliferation was induced by stimulation of the cells with the T cell mitogen phytohemagglutinin (PHA), either in the absence (positive proliferation control), or in the presence of test peptide—10 micrograms per ml—to examine their effects on the T cell proliferating response. 10^5/well PBMC were plated in 96-well microtiter plates and assayed in duplicate with the peptide. Cell cultures were incubated at 37° C. for 3 days in a 5% CO2 incubator and were thereafter pulsed with 1 microCi/well ^3H-thymidine for additional 12 hours of culture. At the end of incubation time, the plates were harvested and the cells counted by liquid scintillation for the incorporation of ^3H-thymidine as a measure of T cell proliferation.

[3] = test system: A549 cells; experiment: Apoptosis induction assay (Annexin-5); type: cell-based, human; settings: apoptosis induction in A549 cells, 24 hours exposure
Source text: Human A549 cells (carcinomic human alveolar basal epithelial cells) were utilized in the experiments employing the Annexin-5 apoptosis assay. Annexin-5 is a member of a highly conserved protein family that binds acidic phospholipids in a calcium-dependent manner. […] Phosphatidylserine is translocated from the inner side of the plasma membrane to the outer layer when cells undergo death by apoptosis or cell necrosis and serves as a signal by which cell destined for death are recognized by phagocytes. Test peptide—[…]—were exposed for 24 hours to the A549 cells before they were analyzed for signs of apoptosis.

[4] = test system: A549 cells; experiment: Apoptosis prevention assay (C2 ceramide, Annexin-5); type: cell-based, human; settings: A549 cells pretreated 30 min with peptide 10 micrograms per ml, then C2 ceramide
Source text: Human A549 cells (carcinomic human alveolar basal epithelial cells) were utilized in the experiments employing the Annexin-5 apoptosis assay. Annexin-5 is a member of a highly conserved protein family that binds acidic phospholipids in a calcium-dependent manner. […] Phosphatidylserine is translocated from the inner side of the plasma membrane to the outer layer when cells undergo death by apoptosis or cell necrosis and serves as a signal by which cell destined for death are recognized by phagocytes. A549 cells were pretreated for 30 min with test peptide—10 micrograms per ml—followed by the exposure to C2 ceramide. Ceramide mediates cell apoptosis through the activation of the mitogen activating protein kinase (MAPK) and the stress activated kinase (JNK/SAPK). C2 ceramide is a synthetic, membrane soluble analog of ceramide.

[5] = test system: spleen cells; experiment: Th1/Th2 cytokine profiling assay (Ovalbumin restimulated spleen cells, CBA kit); type: cell-based, Balb/c mice; settings: peptide 10 micrograms per ml; Ovalbumin 10 micrograms/ml restimulation; 72 hours
Source text: The Balb/c mice (originated in 1923, it is a popular strain and is used in many different research disciplines. Also classified as an inbred from the production of 20 or more successive brother-sister matings, the Balb/c mouse is albino and small in size) were immunized on Days 1, 15, and 29 with Ovalbumin (Ovalbumin is the main protein found in egg white, commonly used to stimulate an immunological reaction in test animals) in PBS (5 micrograms/injection). On day 50, spleens of the mice were harvested (3 weeks after last boost with Ovalbumin). Cells were cultured (2×10^5/well in triplicate) and incubated with culture medium or test peptide—10 micrograms per ml—for 30 min. Thereafter, additional Ovalbumin was added to the cells at 10 micrograms/ml for in vitro restimulation of the cells. 72 hours later, cell supernatants were harvested and assayed using the Becton Dickinson Mouse Th1/Th2 Cytokine CBA Kit. This kit can be used to measure Interleukin-2 (IL-2), Interleukin-4 (IL-4), Interleukin-5 (IL-5), Interferon-γ (IFN-γ), and Tumor Necrosis Factor-α (TNF-α) protein levels in a single sample. The kit performance has been optimized for analysis of physiologically relevant concentrations ([…] levels) of specific cytokine proteins in tissue culture supernatants and serum samples.

[6] = test system: Primary Human endothelial cells (HUVEC); experiment: Endothelial cell migration assay; type: cell-based; settings: peptide 10 micrograms per ml, 22 hours
Procedure: Endothelial cell migration is a prerequisite for the process of neo-vascularization or angiogenesis which is crucial for on-site recruitment of blood vessel formation. Primary Human endothelial cells (HUVEC) were seeded in insert chambers with 3 micrometer pore size of multi-transwell plate for 6 hours at 37° C. in Endothelial Cell Basal Medium (EBM) supplemented with 0.1% bovine serum albumin. Thereafter, designated concentration of test peptide—10 micrograms per ml—was added in duplicate wells. The endothelia were allowed to migrate for 22 hours at 37° C., then, migrated cells were fixed and stained with Hoechst 33342 dye. Images of 3 fields per insert were taken and the number of migrated cells per field were quantified using the ImageProPlus software. Data were analyzed for the average number of the migrated cells and standard deviation of six data points for each treatment condition. Active test peptide against HUVEC migration was determined based on 50% inhibition of migrated cells as compared with the control. Statistic p values were computed using the Student's t-test.

[7] = in vitro; settings: human
[8] = Cytotoxicity in HIV-1 assay (MTS cell viability); settings: human, CEM-SS cells (uninfected, cells plus peptide only)
[9] = test system: hepatitis B virus (HBV) ayw strain; experiment: HBV assay, secreted HBV DNA by TaqMan PCR in HepG2-2.2.15; settings: peptide 10 micrograms per ml; six days; HBV DNA in supernatant

SMILES: CC(C)C[C@H](NC(=O)[C@H](CC(C)C)NC(=O)[C@@H](Cc1c[nH]c2ccccc12)NC(=O)[C@H](Cc1ccccc1)NC(=O)[C@@H](Cc1c[nH]c2ccccc12)NC(=O)[C@H](CCC(N)=O)NC(=O)[C@H](CCC(N)=O)NC(=O)[C@@H]1CCCN1C(=O)[C@H](CCCCN)NC(=O)[C@@H]1CCCN1C(=O)[C@@H](CCCNC(=N)N)NC(=O)[C@@H]1CCCN1C(=O)CNC(=O)[C@H](CC(C)C)NC(=O)[C@H](CC(C)C)NC(=O)[C@H](Cc1ccc(O)cc1)NC(=O)CNC(=O)[C@H](C)NC(=O)[C@H](CO)NC(=O)[C@H](CC(N)=O)NC(=O)[C@H](CC(C)C)NC(=O)[C@@H](NC(=O)[C@H](Cc1c[nH]c2ccccc12)NC(=O)CN)[C@@H](C)O)C(N)=O [Spantide-I, Gly-Trp-Thr-Leu-Asn-Ser-Ala-Gly-Tyr-Leu-Leu-Gly-Pro-D-Arg-Pro-Lys-Pro-Gln-Gln-D-Trp-Phe-D-Trp-Leu-Leu-NH2] (H-GWTLNSAGYLLGP[dR]PKPQQ[dW]F[dW]LL-NH2)
- % CPE reduction in HIV-1 infected CEM-SS cells [1]: 0.0%
- % of PHA induced control [2]: 96.3%
- % of induction [3]: 1.4%
- % prevention of ceramide induced apoptosis [4]: −20.5%
- IFNγ spleen cells; TH1 response (% of control) [5]: 43.1 % of control
- IL-2 spleen cells (% of control) [5]: 25.9 % of control
- IL-4 spleen cells; TH2 response (% of control) [5]: 40.5 % of control
- IL-5 spleen cells; TH2 response (% of control) [5]: 64.5 % of control
- TNF-a spleen cells; TH1 response (% of control) [5]: 61.9 % of control
- % inhibition of migration [6]: −25%
- viability at 144 h, 10 micrograms per ml [7]: 100%
- viability at 10 micrograms per ml [8]: 100%
- % inhibition of HBV replication in HEP G2 cells [9]: 14.1%
